Data as given in patent publication US5955508A, “Method for the enhancement of lymphocyte activity against opportunistic microbial pathogens” (priority 1996, dated 1999).
Like-named read-outs stand apart in the source and are kept apart here.

Tests used:
IL-2 in CD8+ T cells = test: IL-2 production by CD8+ T cells, flow cytometry; format: cell-based, human; conditions: for % Positive Cells (IL-2 immunopositive), d-FEN / IL-2 Titer, d-FEN: Mean ± SEM
Source text: (§1) The T lymphocytes analyzed were obtained from 20 HIV+ patients (9 females and 11 males, 25-48 years of age). The patients were diagnosed as being HIV+ within the past 0.5-9 years, and 15 are being treated with antiviral drugs. The subjects' study identification number (indicates the order in which bloods were drawn), CD4+ and CD8+ counts (determined March, 1996, as part of the present study), age, sex, date of diagnosis, and pharmacotherapy are provided in Table 1.
(§2) The experimental protocol for this project is illustrated in Table A. Note that the cultures were exposed to two doses (5 and 50 ng/ml) of d-FEN in the mitogenesis assays, whereas only one dose (50 ng/ml) was used in the antifungal and cytokine release assays.
(§3) Cytokine Profiles. Peripheral mononuclear cells were isolated by the Ficoll-Hypaque method and washed twice with RPMI-1640 medium. Cell suspensions were made at 1×10^6 /ml and the cells activated with interleukin-2 (IL-2) for 18 h or 4 days at 37° C. under 5% CO^2 +95% air. Monensin (1 nM) then was added to the culture to block secretion of cytokines, and the cultures allowed to continue for another 3 h. The cells were washed twice with PBS+1% fetal calf serum (FCS) with 0.1% saponin+0.1% sodium azide, then washed once with PBS-1% FCS and stained with anti-cytokine MAb-FL conjugate for 30 min. Following two washes, the cells were analyzed by flow cytometry for production of IL-2, IFN-γ and TNF-α. The MAbs-FL conjugates were obtained from Pharmingen (San Diego, Calif.). Potential effects of on cytokine production were evaluated (a) as increases in the percentage of a T cell subset which produce the respective cytokine; and, (b) as increases in the amount of cytokine produced by each subset. The latter were analyzed as a shift of the cytokine histograms.
(§4) The data were analyzed by a one- or two-way analysis of variance (ANOVA) with repeated measures where appropriate ([…] version 1; Jandel, San Rafael, Calif.). Significant main effects were subjected to post hoc analysis using the Student-Newman Keuls All Pairwise Multiple Comparisons test or the Mann-Whitney U test.

[1] = system: TNF-α in CD4+ (CD8-) T cells; test: TNF-α production by CD4+ (CD8-) T cells, flow cytometry; format: cell-based, human; conditions: for % Positive Cells (TNF-α immunopositive), d-FEN / TNF-α Titer, d-FEN: CD4+ (CD8-) T cells, Mean ± SEM; for inhibition at 0.05 µg/mL: Homo sapiens, T-cell
Source text: as §1, §2, §3, §4

TNF-α in CD8+ T cells = test: TNF-α production by CD8+ T cells, flow cytometry; format: cell-based, human; conditions: 50 ng/ml; for % Positive Cells (TNF-α immunopositive), d-FEN / TNF-α Titer, d-FEN: Mean ± SEM
Source text: as §1, §2, §3, §4

[2] = cited from earlier work
[3] = 50 ng/ml, CD8+ T cells, non-AIDS HIV+

With `CCN[C@@H](C)Cc1cccc(C(F)(F)F)c1` [d-FEN] the “% Positive Cells (IL-2 immunopositive), d-FEN” value (IL-2 in CD8+ T cells; 50 ng/ml, CD8+ T cells, AIDS) was 18 ± 4%, the “IL-2 Titer, d-FEN” value (IL-2 in CD8+ T cells; 50 ng/ml, CD8+ T cells, AIDS) was 147 ± 34 geometric mean channel fluorescence and the “effect on IL-2 titer in words” value (IL-2 in CD8+ T cells; 50 ng/ml, CD8+ T cells, non-AIDS) was “not from the non-AIDS patients”. For the same molecule, the “% Positive Cells (IL-2 immunopositive), d-FEN” value (IL-2 in CD8+ T cells; [3]) was 36 ± 3%, the “IL-2 Titer, d-FEN” value (IL-2 in CD8+ T cells; [3]) was 220 ± 28 geometric mean channel fluorescence and the activation at 0.05 µg/mL (IL-2 in CD8+ T cells; Homo sapiens, T-cell, read-out: percent increase of IL-2 titer over VEH) was 40%. For the same molecule, the “% Positive Cells (TNF-α immunopositive), d-FEN” value ([1]; 50 ng/ml, AIDS) was 31 ± 4%, the “TNF-α Titer, d-FEN” value ([1]; 50 ng/ml, AIDS) was 156 ± 40 geometric mean channel fluorescence and the “% Positive Cells (TNF-α immunopositive), d-FEN” value ([1]; 50 ng/ml, non-AIDS HIV+) was 69 ± 3%. The “TNF-α Titer, d-FEN” value ([1]; 50 ng/ml, non-AIDS HIV+) was 310 ± 40 geometric mean channel fluorescence, the “effect on TNF-α level in words” value ([1]; 50 ng/ml, CD4+ T cells, AIDS) was “not in the AIDS CD4+ T cells” and the “effect on number of TNF-α+ cells in words” value ([1]; 50 ng/ml, CD4+ T cells, AIDS) was “failed to affect”. For the same molecule, the inhibition at 0.05 µg/mL ([1]; read-out: percent change of TNF-α titer vs VEH) was 23%, the inhibition at 0.05 µg/mL ([1]; read-out: reduction of the level of TNF-α) was 23% and the “effect on TNF-α titer in words” value (TNF-α in CD8+ T cells) was “No significant effects on TNF-α titer were observed”. The “% Positive Cells (TNF-α immunopositive), d-FEN” value (TNF-α in CD8+ T cells; AIDS) was 62 ± 4%, the “TNF-α Titer, d-FEN” value (TNF-α in CD8+ T cells; AIDS) was 329 ± 57 geometric mean channel fluorescence and the “% Positive Cells (TNF-α immunopositive), d-FEN” value (TNF-α in CD8+ T cells; non-AIDS HIV+) was 69 ± 3%. The “TNF-α Titer, d-FEN” value (TNF-α in CD8+ T cells; non-AIDS HIV+) was 392 ± 47 geometric mean channel fluorescence, the activation at 0.05 µg/mL (TNF-α in CD8+ T cells; Homo sapiens, T-cell, AIDS, read-out: percent increase of TNF-α+ cells over VEH) was 24% and the “level in tissue and in plasma” value ([2]; 5 mg dextrofenfluramine per os) was “about 5 ng/ml”. The “conversion to metabolite dextronorfenfluramine” value ([2]; upon administration, in vivo) was “partially converts upon administration to its metabolite dextronorfenfluramine”.
